Reference: US20120172438A1, “GLYCYRRHETINIC ACID ESTER DERIVATIVE SYNTHESIS METHOD AND DEOXOGLYCYRRHETINIC ACID ESTER COMPOUND” (priority 2009, published 2012)
Marks after values point to notes of the source that are not given here.

What was measured:
[1] = test system: carrageenan-induced rat paw edema; experiment: Carrageenan-induced rat paw swelling; type: in vivo, male SD rats
Method: Rat paw edema was induced by injecting carrageenan, and we observed the swelling to evaluate the anti-inflammatory effect. Wherein:
• Animals: male SD rats, 150-180 g; • Inflammatory Agent: carrageenan; • Test Medicine: ethyl 11-deoxy-18α-glycyrrhetinate was dissolved in 1% CMC-Na to get the desired concentration; • Positive Control Medicine: indomethacin was dissolved in 1% CMC-Na to get the desired concentration;
50 rats were randomly divided into 5 groups of 10 rats in each group: the model group, positive control group (administering indomethacin 10 mg/kg), various doses of the test medicine groups (30, 60, 120 mg/kg). The animals in each group were administered continuously for 3 days. Before the last administration, the volumes of the left hind feet of the rats were measured by micropipette method. Then the animals were administered the test medicines or CMC-Na by gastric infusion. 1 hour later, freshly prepared carrageenan was injected subcutaneously into left hind feet of the rats according to the dosage of 0.05 ml/paw by using a 0.25 ml syringe and NO. 4 needle. The volume of left hind feet of the rats was measured by the method mentioned above at time points of 1, 3, 4, 5 and 7 hours after administration, each point 2 times, and the average values were calculated. The difference of these values between before and after inflammation was called swelling degree.
Data was presented as x±s. T test of the average of two samples was used to compare the experimental data of each group. P<0.05 or P<0.01 was regarded to be statistically significant.

[2] = test system: acetaminophen induced liver injury; experiment: Acetaminophen induced liver injury in mice; type: in vivo; settings: for ALT / AST: 10 days
Method: Ethyl 11-deoxy-18α-glycyrrhetinate: provided by traditional Chinese medicine laboratory, R&D center of Jiangsu Chia Tai Tianqing Pharmaceutical Co., Ltd. Bifendate pills: produced by Beijing Union Pharmaceutical factory. Daily dosage of human is 45 mg, used as the positive control medicine. Acetaminophen: produced by Jinzhou biochemical pharmaceutical factory. All medicines were prepared to desired concentrations with physiological saline according to the requirement of experiment. AST, ALT Kit: product of Nanjing Jiancheng bioengineering research institute.
60 mice were randomly divided into 6 groups: the normal control group, Bifendate group (positive medicine group), model control group, various doses of ethyl 11-deoxy-18α-glycyrrhetinate groups (240, 120, 60 mg/kg). After the animals were adaptively fed for 3 days, animals in each group were administered the medicines by gastric infusion for 10 days (one time/day). Animals in the normal control group and model group were administered 0.2 ml/mouse of physiological saline. 6 hours after the last administration, animals in each group, except the animals in normal control group, were intraperitoneally injected 400 mg kg-1 acetaminophen. After 12 hours, blood was taken by orbital bleeding. Activities of alanine aminotransferase (ALT), aspartate aminotransferase (AST) were measured. And T test of groups was performed, see table 7;

[3] = test system: D-Galn induced acute liver injury; experiment: D-Galn induced acute liver injury mouse model; type: in vivo, ICR male mice
Method: 1. Comparison of therapeutic effects of ethyl 11-deoxy-18α-glycyrrhetinate and compound glycyrrhizin injection on ICR male mouse models of the D-Galn induced acute liver injury
Methods: 60 ICR male mice were randomly divided into 6 groups of 10 mice in each group: the model group, compound glycyrrhizin injection group (60 mg/kg), compound glycyrrhizin gastric infusion group (240 mg /kg), high dose of ethyl 11-deoxy-18α-glycyrrhetinate group (240 mg/kg), middle dose of ethyl 11-deoxy-18α-glycyrrhetinate group (120 mg/kg), low dose of ethyl 11-deoxy-18α-glycyrrhetinate group (60 mg/kg). […] The mice in model group were administered equal amount of 0.5% CMC-Na by gastric infusion.

[4] = test system: TAA induced acute liver injury; experiment: TAA induced acute liver injury mouse model; type: in vivo, ICR male mice; design: Average grade of hepatocyte necrosis: scale not given here; settings: for Grade of hepatocyte necrosis 0 (number of mice) / Grade of hepatocyte necrosis 1 (number of mice) / Grade of hepatocyte necrosis 2 (number of mice) / Grade of hepatocyte necrosis 3 (number of mice) / Grade of hepatocyte necrosis 4 (number of mice): N=10
Method: 50 ICR male mice were randomly divided into 5 groups of 10 mice in each group: the model group, diammonium glycyrrhizinate group (240 mg/kg), high dose of ethyl 11-deoxy-18α-glycyrrhetinate group (240 mg/kg), middle dose of ethyl 11-deoxy-18α-glycyrrhetinate group (120 mg/kg), and low dose of ethyl 11-deoxy-18α-glycyrrhetinate group (60 mg/kg). The mice in model group were administered equal amount of 0.5% CMC-Na by IG.

[5] = test system: BCG + LPS induced liver injury; experiment: BCG+LPS induced liver injury in mice; type: in vivo, Kunming mice; settings: for ALT / AST: 7 days
[6] = Table 1 experiment, 60 mg/kg IG, daily for 6 days
[7] = Table 1 experiment, 120 mg/kg IG, daily for 6 days
[8] = Table 1 experiment, 240 mg/kg IG, daily for 6 days
[9] = Table 2 experiment, 60 mg/kg IG, 7 days
[10] = Table 2 experiment, 120 mg/kg IG, 7 days
[11] = Table 2 experiment, 240 mg/kg IG, 7 days

CCOC(=O)C1(C)CCC2(C)CCC3(C)C(=CCC4C5(C)CCC(O)C(C)(C)C5CCC43C)C2C1 (stereo not drawn) [Ethyl 11-deoxy-18α-glycyrrhetinate, ethyl 11-deoxy-18α-glycyrrhetinate]
Swelling degree of the feet after inflammation ([1]; 30 mg/kg gastric infusion, 1 h): 0.20 ± 0.10 mL | Swelling degree of the feet after inflammation ([1]; 30 mg/kg gastric infusion, 3 h): 0.27 ± 0.10 mL | Swelling degree of the feet after inflammation ([1]; 30 mg/kg gastric infusion, 4 h): 0.33 ± 0.11 mL | Swelling degree of the feet after inflammation ([1]; 30 mg/kg gastric infusion, 5 h): 0.39 ± 0.11 mL | Swelling degree of the feet after inflammation ([1]; 30 mg/kg gastric infusion, 7 h): 0.27 ± 0.12 mL | Swelling degree of the feet after inflammation ([1]; 60 mg/kg gastric infusion, 1 h): 0.17 ± 0.08 mL | Swelling degree of the feet after inflammation ([1]; 60 mg/kg gastric infusion, 3 h): 0.29 ± 0.15 mL | Swelling degree of the feet after inflammation ([1]; 60 mg/kg gastric infusion, 4 h): 0.37 ± 0.11 mL | Swelling degree of the feet after inflammation ([1]; 60 mg/kg gastric infusion, 5 h): 0.37 ± 0.07 mL | Swelling degree of the feet after inflammation ([1]; 60 mg/kg gastric infusion, 7 h): 0.29 ± 0.09 mL | Swelling degree of the feet after inflammation ([1]; 120 mg/kg gastric infusion, 1 h): 0.20 ± 0.05 mL | Swelling degree of the feet after inflammation ([1]; 120 mg/kg gastric infusion, 3 h): 0.32 ± 0.11 mL | Swelling degree of the feet after inflammation ([1]; 120 mg/kg gastric infusion, 4 h): 0.34 ± 0.09 mL | Swelling degree of the feet after inflammation ([1]; 120 mg/kg gastric infusion, 5 h): 0.42 ± 0.12 mL | Swelling degree of the feet after inflammation ([1]; 120 mg/kg gastric infusion, 7 h): 0.28 ± 0.09 mL | Inhibition of carrageenan-induced swelling of the rat feet (in words) ([1]; 30, 60, 120 mg/kg): began to inhibit the swelling of the rat feet induced by carrageenan after 4 hours | ALT ([2]; 60 mg/kg gastric infusion): 172.0 ± 39.8 U/L | AST ([2]; 60 mg/kg gastric infusion): 203.5 ± 55.4 U/L | ALT ([2]; 120 mg/kg gastric infusion): 133.3 ± 28.7 U/L | AST ([2]; 120 mg/kg gastric infusion): 158.1 ± 46.9 U/L | ALT ([2]; 240 mg/kg gastric infusion): 119.4 ± 15.2 U/L | AST ([2]; 240 mg/kg gastric infusion): 122.3 ± 28.0 U/L | Reduction of AST, ALT and protection against hepatocyte injury (in words) ([2]; mouse, in vivo): can reduce AST, ALT, and effectively protect against the acetaminophen induced hepatocyte injury | ALT [3, 6]: 833 ± 564 U/ml | ALT Inhibition % [3, 6]: 60% | AST [3, 6]: 777 ± 533 U/ml | AST Inhibition % [3, 6]: 60% | ALT [3, 7]: 474 ± 345 U/ml | ALT Inhibition % [3, 7]: 77% | AST [3, 7]: 414 ± 340 U/ml | AST Inhibition % [3, 7]: 79% | ALT [3, 8]: 311 ± 256 U/ml | ALT Inhibition % [3, 8]: 85% | AST [3, 8]: 317 ± 214 U/ml | AST Inhibition % [3, 8]: 84% | ALT [3, 9]: 767 ± 739 U/ml | ALT Inhibition % [3, 9]: 61% | AST [3, 9]: 353 ± 256 U/ml | AST Inhibition % [3, 9]: 69% | ALT [3, 10]: 452 ± 432 U/ml | ALT Inhibition % [3, 10]: 77% | AST [3, 10]: 292 ± 215 U/ml | AST Inhibition % [3, 10]: 74% | ALT [3, 11]: 372 ± 440 U/ml | ALT Inhibition % [3, 11]: 81% | AST [3, 11]: 266 ± 192 U/ml | AST Inhibition % [3, 11]: 77% | ALT ([4]; 60 mg/kg IG): 1177 ± 701 U/ml | ALT Inhibition % ([4]; 60 mg/kg IG): 48% | AST ([4]; 60 mg/kg IG): 940 ± 582 U/ml | AST Inhibition % ([4]; 60 mg/kg IG): 45% | Average grade of hepatocyte necrosis ([4]; 60 mg/kg IG): 1.4* | Grade of hepatocyte necrosis 0 (number of mice) ([4]; 60 mg/kg IG): 1 | Grade of hepatocyte necrosis 1 (number of mice) ([4]; 60 mg/kg IG): 4 | Grade of hepatocyte necrosis 2 (number of mice) ([4]; 60 mg/kg IG): 5 | Grade of hepatocyte necrosis 3 (number of mice) ([4]; 60 mg/kg IG): 0 | Grade of hepatocyte necrosis 4 (number of mice) ([4]; 60 mg/kg IG): 0 | ALT ([4]; 120 mg/kg IG): 1117 ± 707 U/ml | ALT Inhibition % ([4]; 120 mg/kg IG): 51% | AST ([4]; 120 mg/kg IG): 823 ± 530 U/ml | AST Inhibition % ([4]; 120 mg/kg IG): 52% | Average grade of hepatocyte necrosis ([4]; 120 mg/kg IG): 1.3** | Grade of hepatocyte necrosis 0 (number of mice) ([4]; 120 mg/kg IG): 1 | Grade of hepatocyte necrosis 1 (number of mice) ([4]; 120 mg/kg IG): 5 | Grade of hepatocyte necrosis 2 (number of mice) ([4]; 120 mg/kg IG): 4 | Grade of hepatocyte necrosis 3 (number of mice) ([4]; 120 mg/kg IG): 0 | Grade of hepatocyte necrosis 4 (number of mice) ([4]; 120 mg/kg IG): 0 | ALT ([4]; 240 mg/kg IG): 992 ± 558 U/ml | ALT Inhibition % ([4]; 240 mg/kg IG): 56% | AST ([4]; 240 mg/kg IG): 738 ± 258 U/ml | AST Inhibition % ([4]; 240 mg/kg IG): 57% | Average grade of hepatocyte necrosis ([4]; 240 mg/kg IG): 1.2** | Grade of hepatocyte necrosis 0 (number of mice) ([4]; 240 mg/kg IG): 1 | Grade of hepatocyte necrosis 1 (number of mice) ([4]; 240 mg/kg IG): 6 | Grade of hepatocyte necrosis 2 (number of mice) ([4]; 240 mg/kg IG): 3 | Grade of hepatocyte necrosis 3 (number of mice) ([4]; 240 mg/kg IG): 0 | Grade of hepatocyte necrosis 4 (number of mice) ([4]; 240 mg/kg IG): 0 | ALT ([5]; 60 mg/kg gastric infusion): 105.3 ± 18.61 U/L | AST ([5]; 60 mg/kg gastric infusion): 227.2 ± 59.7 U/L | ALT ([5]; 120 mg/kg gastric infusion): 108.7 ± 20.0 U/L | AST ([5]; 120 mg/kg gastric infusion): 190.1 ± 43.3 U/L | ALT ([5]; 240 mg/kg gastric infusion): 89.4 ± 13.2 U/L | AST ([5]; 240 mg/kg gastric infusion): 169.3 ± 38.4 U/L | Protection of liver and reduction of enzyme activity (in words) ([5]; mouse, in vivo): has good activity of protecting liver and reducing enzyme activity

COc1ccc2c(c1)c(CC(=O)O)c(C)n2C(=O)c1ccc(Cl)cc1 [Indomethacin, indomethacin, reference compound]
Swelling degree of the feet after inflammation ([1]; 10 mg/kg gastric infusion, 1 h): 0.13 ± 0.05 mL | Swelling degree of the feet after inflammation ([1]; 10 mg/kg gastric infusion, 3 h): 0.17 ± 0.07 mL | Swelling degree of the feet after inflammation ([1]; 10 mg/kg gastric infusion, 4 h): 0.24 ± 0.09 mL | Swelling degree of the feet after inflammation ([1]; 10 mg/kg gastric infusion, 5 h): 0.22 ± 0.06 mL | Swelling degree of the feet after inflammation ([1]; 10 mg/kg gastric infusion, 7 h): 0.16 ± 0.05 mL
